Consider 9 molecules from ChEMBL document CHEMBL1136782, “Further studies on 2,4-diamino-5-(2',5'-disubstituted benzyl)pyrimidines as potent and selective inhibitors of dihydrofolate reductases from three major opportunistic pathogens of AIDS” (J Med Chem, 2003).

Assay [1] concerns the target T1, Bifunctional dihydrofolate reductase-thymidylate synthase (Toxoplasma gondii, UniProt Q07422).
T1 sequence (Q07422 whole entry): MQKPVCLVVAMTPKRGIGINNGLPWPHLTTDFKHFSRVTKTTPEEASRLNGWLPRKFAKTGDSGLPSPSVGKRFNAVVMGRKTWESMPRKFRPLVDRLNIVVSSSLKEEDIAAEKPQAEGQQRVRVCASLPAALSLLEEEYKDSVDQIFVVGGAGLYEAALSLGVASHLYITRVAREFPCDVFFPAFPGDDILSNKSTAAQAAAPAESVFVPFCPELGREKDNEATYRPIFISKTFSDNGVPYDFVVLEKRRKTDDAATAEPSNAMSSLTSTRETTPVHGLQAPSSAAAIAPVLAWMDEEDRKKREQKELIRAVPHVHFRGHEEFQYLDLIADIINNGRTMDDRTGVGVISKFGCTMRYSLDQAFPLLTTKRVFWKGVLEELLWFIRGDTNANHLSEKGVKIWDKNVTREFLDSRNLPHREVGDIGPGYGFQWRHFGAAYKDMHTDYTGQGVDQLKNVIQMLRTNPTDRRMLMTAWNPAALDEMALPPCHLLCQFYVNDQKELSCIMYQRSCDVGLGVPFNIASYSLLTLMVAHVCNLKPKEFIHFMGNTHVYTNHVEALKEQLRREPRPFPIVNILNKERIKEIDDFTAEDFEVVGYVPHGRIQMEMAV
Description: Inhibitory activity against Dihydrohydrofolate reductase(DHFR) of Toxoplasma gondii

The target in assay [2] is T2, Dihydrofolate reductase (Rattus norvegicus, UniProt Q920D2).
T2 sequence (Q920D2 whole entry): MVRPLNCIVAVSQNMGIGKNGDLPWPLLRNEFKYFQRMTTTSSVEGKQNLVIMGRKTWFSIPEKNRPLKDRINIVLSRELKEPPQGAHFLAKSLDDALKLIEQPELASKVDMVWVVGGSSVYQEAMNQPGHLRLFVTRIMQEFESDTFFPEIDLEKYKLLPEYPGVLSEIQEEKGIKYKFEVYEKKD
Description: Inhibitory activity against Dihydrohydrofolate reductase (DHFR) of rat

Assay [3] is described as follows: Relative affinity for Dihydrofolate reductase of rat liver and Mycobacterium avium.
For assay [4], the target named is T3, Dihydrofolate reductase (Mycobacterium avium, UniProt O30463).
T3 sequence (O30463 whole entry): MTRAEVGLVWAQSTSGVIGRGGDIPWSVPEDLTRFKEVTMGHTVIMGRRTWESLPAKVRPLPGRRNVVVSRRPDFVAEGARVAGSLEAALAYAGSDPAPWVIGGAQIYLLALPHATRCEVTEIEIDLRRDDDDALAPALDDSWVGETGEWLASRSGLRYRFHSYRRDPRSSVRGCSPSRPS
Description: Inhibition of Dihydrohydrofolate reductase(DHFR) of Mycobacterium avium

A word on the IC50: it is the concentration needed to halve the response being measured. Low readings indicate higher potency, high ones lower potency. Consider `Nc1nc(N)c2c(CNc3cccc4c3CCCC4)c[nH]c2n1`, for which the IC50 in assay [1] was found to be 1100 nM.
Still for that read-out and setting: as for `COc1cc(Cc2cnc(N)nc2N)cc(OC)c1-n1cccc1`, the figure is 470 nM.
Molecule `COc1ccc(OCCCC(=O)O)cc1Cc1cnc(N)nc1N` had an IC50 at Dihydrofolate reductase [2] of 2700 nM.
As to `Cc1cccc(-c2nc3c(N)nc(N)nc3nc2N)c1`, half-maximal inhibition in assay [1] (IC50) required 18 nM.
In assay [3], `COc1ccc(C#CCOc2ccccc2C(=O)O)cc1Cc1cnc(N)nc1N` showed a Selectivity index of 170.
For `Nc1nc(N)c2nc(CCSc3ccccc3)cnc2n1`, 770 nM corresponded to half-maximal inhibition in assay [1] (IC50).
With `Nc1nc(N)c2nc(C(=O)c3ccccc3)c(-c3ccccc3)nc2n1`, in assay [1], the IC50 turned out to be 860 nM.
On the same count and under the same terms, as for `Nc1nc(N)c2nc(-c3ccccc3)c(-c3ccccc3)nc2n1`, the figure is 240 nM.
`COc1ccc(C#CCCCC(=O)O)cc1Cc1cnc(N)nc1N` had an IC50 at Dihydrofolate reductase [4] of 7.8 nM.
